Test results taken from US6716829B2, “Aldosterone antagonist and cyclooxygenase-2 inhibitor combination therapy to prevent or treat inflammation-related cardiovascular disorders” (Pharmacia Corporation, priority 2000, dated 2004).
“And” between values parts separate entries of the source, which are not always exact repeats. Identical values can stand only once. “Also recorded” adds a separate entry of the source.

Experiments:
osteopontin = assay: Assay A: immunostaining of hearts with osteopontin-specific antibody; format: in vivo, Male Wistar rats; settings: angiotensin II-infused, saline-drinking rats; eplerenone 100 mpk; aldosterone replacement in adrenalectomized rats
Excerpt: Osteopontin (also known as early T-cell activation-1, Eta-1) is a secreted glycoprotein with pro-inflammatory characteristics that mediates chemoattraction, activation and migration of monocytes.

[1] = tested on: aldosterone + salt treated uninephrectomized rats; assay: Assay C, further aldosterone infusion study: radiotelemetrized arterial (systolic) blood pressure; format: in vivo, Male Sprague-Dawley rats; settings: for Systolic Blood Pressure (mmHg): mean ± SEM of values every 5 min over 24-hour period
Procedure: Assay C: Further In Vivo Aldosterone Infusion Study
The procedure of Assay B was expanded upon in a further study. […] Myocardial tissue from animals in each treatment group was examined after 7, 14, or 30 days of treatment.
Male Sprague-Dawley rats, weighing 230 to 250 g, (Harlan Sprague-Dawley Industries, Indianapolis, IN) were housed in a room 12-hours light/12-hours dark daily cycle at an ambient temperature of 22±1° C. (n=96). Animals were allowed one week to adjust after arrival and had free access to TEKLAD 22/5 rodent diet (Harlan TEKLAD, Madison, Wis.) and tap water until the initiation of the experiment.
Potassium chloride supplementation was added to the saline solution in order to prevent the potential hypokalemia associated with aldosterone excess.
At the time of the surgery, an Alzet 2002 osmotic minipump (Alza Corp., Palo Alto, Calif.) containing either vehicle (9% ethanol/87% propylene glycol/4% dH2O) or 1.0 mg/mL d-aldosterone (Sigma Chemical, St. Louis, Mo.) was inserted subcutaneously at the nape of the neck. Aldosterone was administered at a dose of 0.75 µg/hour. […] Animals were sacrificed from each group (n=8-13) after 7, 14, or 30 days of treatment.
Animals to be sacrificed after 7 or 14 days of treatment were uninephrectomized and implanted with an Alzet minipump. Animals treated for 30 days were uninephrectomized, fitted for Alzet minipumps, and implanted with radio telemetry units (model #TA11PA-C40, Data Sciences Inc., St. Paul, Minn.) according to the following procedure. Animals were anesthetized with 5% isoflurane (SOLVAY Animal Health Inc., Mendota Heights, Minn.), which was delivered in O2 using a VMS anesthesia instrument (Matrix Medical, Inc., Orchard Park, N.Y.). Anesthesia was maintained with 1-2% isoflurane throughout the surgical procedure. The surgery site was clipped, scrubbed with nolvasan, and sprayed with betadine. A rostral-caudal incision was made through the skin from the base of the rib cage to the pubic region using a #11 scalpel blade. A second incision was made through the muscles of the abdominal wall to expose the peritoneal cavity. The […], renal artery and vein of the left kidney were isolated, tied off with 4-0 silk, and the kidney excised and discarded. Organs were carefully displaced with tissue retractors in order to expose the abdominal aorta. A 1.5 cm segment just rostral to the bifurcation of the abdominal aorta into the iliac arteries was cleared of excessive connective tissue and 4-0 silk was used to make an anchor adjacent to the aorta. A microvascular clip was then placed at both ends of the cleaned region to stop excessive blood flow. Using a bent, 21 gauge needle, the abdominal aorta was penetrated. The cannula of the radio telemetry unit was inserted and stabilized in the aorta using the 4-0 silk anchor. Organs were repositioned and the telemetry unit was placed over the organs. Using a non-interrupted suture pattern with 4-0 silk, the abdominal wall was closed, and the skin was subsequently closed using a 4-0 silk in an interrupted suture pattern. Animals were injected around the sutures with 100 μL of the anesthetic Marcaine HCl (Sanofi Winthrop Pharmaceuticals, New York, N.Y.) and given an injection (i.m.) of the antibiotic Mandol (Eli Lilly & Co., Indianapolis, Ind.). Post-operative care included monitoring the animals on a heating pad during recovery from anesthesia until sternal recumbency was reestablished. Animals were monitored daily for signs of distress and infection at the surgical site. Animals displaying continued discomfort after surgery were treated with 0.1-0.5 mg/kg, s.c. Buphrenorphine (Rickett & Colman Pharmaceuticals, Inc. Richmond, Va.). Animals were then placed on tap water and TEKLAD 22/5 rodent diet (Harlan TEKLAD, Madison, Wis.).
Radiotelemetrized arterial blood pressure was calculated with the […]

hydroxyproline = assay: Assay C: myocardial hydroxyproline assay; format: in vivo, Male Sprague-Dawley rats
Procedure: The procedure of Assay B was expanded upon in a further study. […] Myocardial tissue from animals in each treatment group was examined after 7, 14, or 30 days of treatment. […] Lesions were preceded by the expression and progressive upregulation of proinflammatory molecules. […] Prior to surgery the animals were individually weighed and placed in one of the following groups: […] Potassium chloride supplementation was added to the saline solution in order to prevent the potential hypokalemia associated with aldosterone excess. […] Louis, Mo.) was inserted subcutaneously at the nape of the neck. Aldosterone was administered at a dose of 0.75 µg/hour. […] Animals were sacrificed from each group (n=8-13) after 7, 14, or 30 days of treatment. Following exsanguination, hearts and kidneys were isolated, removed, rinsed in cold phosphate-buffered saline, and blotted dry. […] Myocardial hydroxyproline concentration was measured by a […] assay that quantifies the reaction between oxidized hydroxyproline, and p-dimethylaminobenzaldehyde as described previously (4). […] Dried tissues and a positive collagen control (Bovine Collagen Type I, Sigma, St. […] T. Baker, Phillipsburg, N.J.) for 5 min at 25° C. […] Samples were incubated at 60° C. for 30 min, cooled to room temperature, and absorbance was monitored at 558 nm. Hydroxyproline content was quantitated from a freshly prepared standard curve of trans-4-hydroxy-L-proline (Sigma, St. Louis, Mo.). All samples and standards were performed in duplicate.

## C[C@]12CCC(=O)C=C1CC[C@@H]1[C@@H]2[C@@H](O)C[C@]2(C=O)[C@@H](C(=O)CO)CC[C@@H]12 [Aldosterone]
osteopontin
  Osteopontin expression in the heart (immunostaining): restored osteopontin expression
[1]; Day 3, individual rats, 30-day protocol, listed as Aldosterone + salt
  Systolic Blood Pressure: 116 mmHg and 152 mmHg and 115 mmHg and 127 mmHg and 143 mmHg and 122 mmHg and 124 mmHg and 159 mmHg
[1]; Day 3
  Systolic Blood Pressure (mmHg): 132 ± 6 mmHg
[1]; Day 4, individual rats, 30-day protocol, listed as Aldosterone + salt
  Systolic Blood Pressure: 120 mmHg and 149 mmHg and 122 mmHg and 134 mmHg and 129 mmHg and 135 mmHg and 125 mmHg and 152 mmHg
[1]; Day 4
  Systolic Blood Pressure (mmHg): 133 ± 4 mmHg
[1]; Day 5, individual rats, 30-day protocol, listed as Aldosterone + salt
  Systolic Blood Pressure: 126 mmHg and 158 mmHg and 124 mmHg and 142 mmHg and 129 mmHg and 137 mmHg and 128 mmHg and 151 mmHg
[1]; Day 5
  Systolic Blood Pressure (mmHg): 137 ± 4 mmHg
[1]; Day 6, individual rats, 30-day protocol, listed as Aldosterone + salt
  Systolic Blood Pressure: 132 mmHg and 170 mmHg and 136 mmHg and 157 mmHg and 144 mmHg and 149 mmHg and 135 mmHg and 158 mmHg
[1]; Day 6
  Systolic Blood Pressure (mmHg): 148 ± 5 mmHg
[1]; Day 7, individual rats, 30-day protocol, listed as Aldosterone + salt
  Systolic Blood Pressure: 140 mmHg and 179 mmHg and 139 mmHg and 165 mmHg (2×) and 153 mmHg and 154 mmHg and 145 mmHg
[1]; Day 7
  Systolic Blood Pressure (mmHg): 155 ± 5 mmHg
[1]; Day 8, individual rats, 30-day protocol, listed as Aldosterone + salt
  Systolic Blood Pressure: 145 mmHg and 182 mmHg and 143 mmHg and 160 mmHg and 158 mmHg and 154 mmHg and 146 mmHg and 163 mmHg
[1]; Day 8
  Systolic Blood Pressure (mmHg): 156 ± 4 mmHg
[1]; Day 9, individual rats, 30-day protocol, listed as Aldosterone + salt
  Systolic Blood Pressure: 150 mmHg and 191 mmHg and 148 mmHg and 172 mmHg (2×) and 159 mmHg and 151 mmHg and 169 mmHg
[1]; Day 9
  Systolic Blood Pressure (mmHg): 164 ± 5 mmHg
[1]; Day 10, individual rats, 30-day protocol, listed as Aldosterone + salt
  Systolic Blood Pressure: 156 mmHg and 196 mmHg and 149 mmHg and 175 mmHg (2×) and 165 mmHg and 151 mmHg and 172 mmHg
[1]; Day 10
  Systolic Blood Pressure (mmHg): 168 ± 6 mmHg
[1]; Day 11, individual rats, 30-day protocol, listed as Aldosterone + salt
  Systolic Blood Pressure: 154 mmHg and 201 mmHg and 155 mmHg (2×) and 178 mmHg and 181 mmHg and 163 mmHg and 175 mmHg
[1]; Day 11
  Systolic Blood Pressure (mmHg): 171 ± 6 mmHg
[1]; Day 12, individual rats, 30-day protocol, listed as Aldosterone + salt
  Systolic Blood Pressure: 159 mmHg and 207 mmHg and 161 mmHg and 190 mmHg (2×) and 186 mmHg and 170 mmHg and 163 mmHg
[1]; Day 12
  Systolic Blood Pressure (mmHg): 178 ± 6 mmHg
[1]; Day 13, individual rats, 30-day protocol, listed as Aldosterone + salt
  Systolic Blood Pressure: 161 mmHg and 210 mmHg and 166 mmHg (2×) and 196 mmHg and 191 mmHg and 172 mmHg and 194 mmHg
[1]; Day 13
  Systolic Blood Pressure (mmHg): 182 ± 6 mmHg
[1]; Day 14, individual rats, 30-day protocol, listed as Aldosterone + salt
  Systolic Blood Pressure: 164 mmHg and 208 mmHg and 170 mmHg and 204 mmHg and 192 mmHg (2×) and 181 mmHg and 159 mmHg and 172 mmHg
[1]; Day 14
  Systolic Blood Pressure (mmHg): 182 ± 6 mmHg
[1]; Day 15, individual rats, 30-day protocol, listed as Aldosterone + salt
  Systolic Blood Pressure: 171 mmHg
[1]; Day 15
  Systolic Blood Pressure (mmHg): 181 ± 5 mmHg
[1]; Day 16
  Systolic Blood Pressure (mmHg): 187 ± 6 mmHg
[1]; Day 17
  Systolic Blood Pressure (mmHg): 195 ± 7 mmHg
[1]; Day 18
  Systolic Blood Pressure (mmHg): 196 ± 6 mmHg
[1]; Day 19
  Systolic Blood Pressure (mmHg): 200 ± 6 mmHg
[1]; Day 20
  Systolic Blood Pressure (mmHg): 203 ± 5 mmHg
[1]; Day 21
  Systolic Blood Pressure (mmHg): 208 ± 4 mmHg
[1]; Day 22
  Systolic Blood Pressure (mmHg): 209 ± 4 mmHg
[1]; Day 23
  Systolic Blood Pressure (mmHg): 208 ± 4 mmHg
[1]; Day 24
  Systolic Blood Pressure (mmHg): 210 ± 3 mmHg
[1]; Day 25
  Systolic Blood Pressure (mmHg): 210 ± 4 mmHg
[1]; Day 26
  Systolic Blood Pressure (mmHg): 210 ± 3 mmHg
[1]; aldosterone + salt, uninephrectomized rats, up to 30 days, eplerenone 100 mg/kg/day
  Systolic Blood Pressure: induced severe hypertension; also recorded: progressive increase in blood pressure with time
hydroxyproline; group mean, data used for Table 15 (14 days of treatment)
  Hydroxyproline: 4.04 µg/mg
hydroxyproline; group mean, data used for Table 16 (30 days of treatment)
  Hydroxyproline: 4.39 µg/mg
hydroxyproline; individual rats, data used for Table 15 (14 days of treatment), incl. rat marked * excluded from statistics, listed as Aldosterone + salt
  Hydroxyproline: 2.89 µg/mg and 2.91 µg/mg and 6.28 µg/mg and 5.63 µg/mg and 4.83 µg/mg and 5.64 µg/mg and 5.29 µg/mg and 2.76 µg/mg and 2.68 µg/mg and 2.60 µg/mg and 3.00 µg/mg and 3.99 µg/mg and 2.73 µg/mg
hydroxyproline; individual rats, data used for Table 16 (30 days of treatment), incl. rat marked * excluded from statistics, listed as Aldosterone + salt
  Hydroxyproline: 7.24 µg/mg and 8.01 µg/mg and 3.62 µg/mg and 3.69 µg/mg and 4.00 µg/mg and 3.54 µg/mg and 3.07 µg/mg and 3.25 µg/mg and 3.09 µg/mg
hydroxyproline; mean after 7 days of treatment, eplerenone dose 100 mg/kg/day
  Hydroxyproline: 2.73 µg/mg
hydroxyproline; mean after 14 days of treatment, eplerenone dose 100 mg/kg/day
  Hydroxyproline: 4.04 µg/mg
hydroxyproline; mean after 30 days of treatment, eplerenone dose 100 mg/kg/day
  Hydroxyproline: 4.39 µg/mg
